Converted amounts (≈) assume the structure as drawn. “And” between values parts separate entries of the source, which are not always exact repeats. Equal values may be shown once. Read-outs that look alike come from different tables or passages of the source.
What was measured:
ACC1 = ACC1 (Homo sapiens, UniProt Q13085); experiment: In vitro ACC1 inhibition assay (ADP-Glo); format: biochemical; conditions: read-out: ACC1
Procedure, shortened: (§1)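 Enzyme (human ACC1 or ACC2) and compound, serially diluted 1:3 over 11 points from a 600 uM DMSO stock, were preincubated 15 min before substrate addition.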

ACC2 = ACC2 (Homo sapiens, UniProt O00763); experiment: In vitro ACC2 inhibition assay (ADP-Glo); format: biochemical; conditions: read-out: ACC2
Procedure, shortened: as §1

target protein (ACC) = experiment: Thermal Shift Assay (TSA); format: binding; conditions: FIG. 2
Text: 103, 43, 15835-15840, the entirety of which is incorporated herein by reference.

C. albicans ATCC 90028 = experiment: Anti-Fungal Activity Assay (broth microtiter MIC); format: cell-based; conditions: 3 replicates, test compounds read at 48 h
Procedure: (§2) Compounds of the present invention were evaluated in an Anti-Fungal Activity Assay. An exemplary procedure for the assay, which measures the susceptibility of various Candida species to anti-fungal compounds, follows. Compounds to be tested (including fluconazole and amphotericin B) were dissolved in DMSO to obtain a solution having a concentration of 1 mg/mL. […] All species were grown from frozen stock by directly plating on to freshly prepared Sabouraud Dextrose agar (BD, Difco) and incubated overnight in ambient air at 35° C. for 24 h. A direct suspension was prepared in RPMI 1640+MOPS (Lonza, Biowhittaker) by taking individual colonies from the overnight cultures using sterile swabs soaked in sterile saline. The concentration of the suspension was determined using pre-determined standard curves. […] The original CLSI guidelines focused on reading Candida MICs after 48 h of incubation. As reading after only 24 h offers a clear advantage of patient care, QC limits are being established for all drugs at 24 h. That being said there are no known interpretive breakpoints for amphotericin B at 24 h and the current fluconazole interpretive breakpoints are based on a 48 h reading. The MIC breakpoints for the Pharmaron test compounds were recorded at 48 h, and for the soraphen the 24 h time-point was added. All MIC determinations were achieved by visually comparing the growth found in the antibiotic challenged wells to that of the growth control.

C. krusei ATCC 6258 = experiment: Anti-Fungal Activity Assay (broth microtiter MIC); format: cell-based; conditions: 3 replicates, test compounds read at 48 h
Procedure: as §2

[1] = tested on: C. parapsilosis ATCC 22019; experiment: Anti-Fungal Activity Assay (broth microtiter MIC); format: cell-based; conditions: 3 replicates, test compounds read at 48 h
Procedure: as §2

Candida species = experiment: Anti-Fungal Activity Assay, summary over Candida species; format: cell-based; conditions: summary of Table 3
Procedure: as §2

[2] = Candida albicans, ATCC90028, 48 h, read-out: MIC
[3] = Lodderomyces parapsilosis, ATCC22019, 48 h, read-out: MIC
[4] = Pichia kudriavzevii, ATCC6258, 48 h, read-out: MIC

Sequence of ACC2 (O00763 whole entry, species assumed): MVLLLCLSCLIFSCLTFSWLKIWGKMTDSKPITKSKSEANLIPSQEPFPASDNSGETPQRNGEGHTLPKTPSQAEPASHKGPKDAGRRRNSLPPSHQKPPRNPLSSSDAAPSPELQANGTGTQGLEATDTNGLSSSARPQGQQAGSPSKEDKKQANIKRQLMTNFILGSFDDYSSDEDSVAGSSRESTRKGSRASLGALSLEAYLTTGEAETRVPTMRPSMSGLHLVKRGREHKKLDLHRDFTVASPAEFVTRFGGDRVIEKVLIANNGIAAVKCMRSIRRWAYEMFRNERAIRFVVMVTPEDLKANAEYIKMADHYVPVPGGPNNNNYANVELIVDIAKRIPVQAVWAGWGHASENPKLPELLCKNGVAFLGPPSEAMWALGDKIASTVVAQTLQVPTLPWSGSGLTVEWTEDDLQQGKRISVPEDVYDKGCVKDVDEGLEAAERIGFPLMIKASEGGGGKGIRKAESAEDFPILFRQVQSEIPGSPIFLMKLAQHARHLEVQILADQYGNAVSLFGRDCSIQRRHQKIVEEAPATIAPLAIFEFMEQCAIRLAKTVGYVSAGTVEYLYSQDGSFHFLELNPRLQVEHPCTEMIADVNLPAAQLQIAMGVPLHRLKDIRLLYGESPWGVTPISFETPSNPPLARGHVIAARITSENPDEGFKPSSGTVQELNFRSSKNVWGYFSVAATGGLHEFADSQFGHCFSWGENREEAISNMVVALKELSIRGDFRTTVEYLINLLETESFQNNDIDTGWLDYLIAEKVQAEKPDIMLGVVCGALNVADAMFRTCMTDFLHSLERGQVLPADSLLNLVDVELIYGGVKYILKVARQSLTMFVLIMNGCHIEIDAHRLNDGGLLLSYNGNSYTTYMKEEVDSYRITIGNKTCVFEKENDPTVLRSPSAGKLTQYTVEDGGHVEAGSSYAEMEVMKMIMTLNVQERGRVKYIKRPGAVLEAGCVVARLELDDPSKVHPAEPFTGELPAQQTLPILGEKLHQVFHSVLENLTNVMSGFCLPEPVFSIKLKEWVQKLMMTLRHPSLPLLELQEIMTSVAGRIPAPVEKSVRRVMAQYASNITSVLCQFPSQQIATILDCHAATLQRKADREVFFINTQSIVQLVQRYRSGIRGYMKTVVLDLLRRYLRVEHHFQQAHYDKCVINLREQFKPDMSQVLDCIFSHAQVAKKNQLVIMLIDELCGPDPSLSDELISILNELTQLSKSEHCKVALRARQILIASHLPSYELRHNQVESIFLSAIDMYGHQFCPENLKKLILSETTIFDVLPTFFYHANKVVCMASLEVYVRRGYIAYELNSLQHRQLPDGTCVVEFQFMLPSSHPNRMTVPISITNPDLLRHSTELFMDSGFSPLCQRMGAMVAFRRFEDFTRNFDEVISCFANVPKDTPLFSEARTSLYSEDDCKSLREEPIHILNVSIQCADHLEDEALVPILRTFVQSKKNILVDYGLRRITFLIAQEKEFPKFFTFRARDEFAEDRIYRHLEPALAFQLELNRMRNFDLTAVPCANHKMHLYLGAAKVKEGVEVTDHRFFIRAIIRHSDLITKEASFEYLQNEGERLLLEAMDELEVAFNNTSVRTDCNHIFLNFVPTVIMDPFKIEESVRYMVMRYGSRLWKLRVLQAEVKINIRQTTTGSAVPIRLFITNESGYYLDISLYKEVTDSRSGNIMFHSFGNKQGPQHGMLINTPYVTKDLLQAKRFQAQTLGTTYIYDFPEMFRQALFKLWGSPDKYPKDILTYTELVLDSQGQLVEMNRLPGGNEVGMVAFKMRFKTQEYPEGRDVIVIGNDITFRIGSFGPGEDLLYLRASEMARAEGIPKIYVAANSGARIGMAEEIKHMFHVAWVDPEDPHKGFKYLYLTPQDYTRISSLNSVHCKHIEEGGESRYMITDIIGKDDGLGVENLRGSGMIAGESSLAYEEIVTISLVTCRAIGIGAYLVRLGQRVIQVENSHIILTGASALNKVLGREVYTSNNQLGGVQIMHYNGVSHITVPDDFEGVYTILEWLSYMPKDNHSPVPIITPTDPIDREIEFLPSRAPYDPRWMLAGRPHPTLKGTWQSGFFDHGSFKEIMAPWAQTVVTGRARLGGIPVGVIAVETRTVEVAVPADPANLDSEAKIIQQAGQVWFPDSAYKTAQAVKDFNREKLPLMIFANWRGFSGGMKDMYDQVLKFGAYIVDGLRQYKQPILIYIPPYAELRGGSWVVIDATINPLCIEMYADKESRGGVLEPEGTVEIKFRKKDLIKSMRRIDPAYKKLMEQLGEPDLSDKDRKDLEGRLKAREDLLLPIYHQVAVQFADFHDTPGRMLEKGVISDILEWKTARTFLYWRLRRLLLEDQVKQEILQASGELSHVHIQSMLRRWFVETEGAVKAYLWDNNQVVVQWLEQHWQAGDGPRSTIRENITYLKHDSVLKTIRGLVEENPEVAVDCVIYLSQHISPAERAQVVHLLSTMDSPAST

With `CCOC(=O)c1sc2c(c1C)c(=O)n(CC(=O)O)c(=O)n2CC(OC(C)C)c1ccccc1` (stereo in doubt) [I-97, (R)-2-(6-(ethoxycarbonyl)-1-(2-isopropoxy-2-phenylethyl)-5-methyl-2,4-dioxo-1,2-dihydrothieno[2,3-d]pyrimidin-3(4H)-yl)acetic acid] the IC50 (ACC1) was under 100 nM, the IC50 (ACC2) was under 1000 nM and the “thermal melting point change” value (target protein (ACC)) was “more than 14 ′C”.
In the case of `C[C@@H]1[C@H](O)[C@@H](C)/C=C/C=C/C=C/C=C/C=C/C=C/C=C/[C@H](O[C@@H]2O[C@H](C)[C@@H](O)[C@H](N)[C@@H]2O)C[C@@H]2O[C@](O)(C[C@@H](O)C[C@@H](O)[C@H](O)CC[C@@H](O)C[C@@H](O)CC(=O)O[C@H]1C)C[C@H](O)[C@H]2C(=O)O` [Amph. B, amphotericin B, reference compound], the MIC (C. albicans ATCC 90028) is reported as 0.5 ug/mL (2×) and 1 ug/mL, the MIC (C. krusei ATCC 6258) is reported as 1 µg/mL (≈ 1.08 µM) and the MIC [1] is reported as 1 µg/mL (≈ 1.08 µM).
`OC(Cn1cncn1)(Cn1cncn1)c1ccc(F)cc1F` [Fluc., fluconazole, reference compound] was tested, and the MIC (C. albicans ATCC 90028) was 1 µg/mL and 2 µg/mL, the MIC (C. albicans ATCC 90028; [2]) was 1 µg/mL (≈ 3.27 µM) and the MIC (C. krusei ATCC 6258) was 32 ug/mL (2×) and 2 ug/mL. For the same molecule, the MIC [1] was 2 µg/mL and 4 µg/mL and the MIC [1, 3] was 2 µg/mL (≈ 6.53 µM).
Molecule `COc1ccccc1[C@H](Cn1c(=O)n(C(C)(C)C(=O)O)c(=O)c2c(C)c(-c3ncco3)sc21)OC(C)C` [I-159, 2-[1-[(2R)-2-(2-methoxyphenyl)-2-(propan-2-yloxy)ethyl]-5-methyl-6-(1,3-oxazol-2-yl)-2,4-dioxo-1H,2H,3H,4H-thieno[2,3-d]pyrimidin-3-yl]-2-methylpropanoic acid] has an IC50 (ACC2) of under 1000 nM, an MIC (C. albicans ATCC 90028) of 8 µg/mL (≈ 15.2 µM) and an MIC (C. albicans ATCC 90028; [2]) of 8 µg/mL (≈ 15.2 µM). For the same molecule, the MIC (C. krusei ATCC 6258) was 16 µg/mL and 32 µg/mL, the MIC (C. krusei ATCC 6258; [4]) was 16 µg/mL (≈ 30.3 µM) and the MIC [1] was over 64 µg/mL. For the same molecule, the MIC [1, 3] was over 64 µg/mL and the “anti-fungal activity MICs” value (Candida species) was “low ug/mL range”.
`Cc1c(-c2ncco2)sc2c1c(=O)n(C(C)(C)C(=O)O)c(=O)n2C[C@H](Oc1ccc(-n2ccnc2)cc1)c1ccccc1` [I-160, 2-[1-[(2R)-2-[4-(1H-imidazol-1-yl)phenoxy]-2-phenylethyl]-5-methyl-6-(1,3-oxazol-2-yl)-2,4-dioxo-1H,2H,3H,4H-thieno[2,3-d]pyrimidin-3-yl]-2-methylpropanoic acid] was tested, and the IC50 (ACC1) was under 100 nM, the IC50 (ACC2) was under 100 nM and the MIC (C. albicans ATCC 90028) was over 64 µg/mL. For the same molecule, the MIC (C. albicans ATCC 90028; [2]) was over 64 µg/mL, the MIC (C. krusei ATCC 6258) was over 64 µg/mL and the MIC (C. krusei ATCC 6258; [4]) was over 64 µg/mL. It also gave an MIC [1] of over 64 µg/mL and an MIC [1, 3] of over 64 µg/mL.
Work on `Cc1c(-c2ncco2)sc2c1c(=O)n(C(C)(C)C(=O)O)c(=O)n2C[C@H](OC1CCOCC1)c1ccccc1` [I-162, 2-methyl-2-[5-methyl-1-[(2R)-2-(oxan-4-yloxy)-2-phenylethyl]-6-(1,3-oxazol-2-yl)-2,4-dioxo-1H,2H,3H,4H-thieno[2,3-d]pyrimidin-3-yl]propanoic acid] yielded an IC50 (ACC1) of under 100 nM, an IC50 (ACC2) of under 1000 nM and an MIC (C. albicans ATCC 90028) of over 64 µg/mL. It also gave an MIC (C. albicans ATCC 90028; [2]) of over 64 µg/mL, an MIC (C. krusei ATCC 6258) of over 64 µg/mL and an MIC (C. krusei ATCC 6258; [4]) of over 64 µg/mL. It also gave an MIC [1] of over 64 µg/mL and an MIC [1, 3] of over 64 µg/mL.
`Cc1c(-c2ncco2)sc2c1c(=O)n(C(C)(C)C(=O)O)c(=O)n2C[C@H](O[C@H]1CC[C@H](O)CC1)c1ccccc1` [I-165, 2-[1-[(2R)-2-[(4-hydroxycyclohexyl)oxy]-2-phenylethyl]-5-methyl-6-(1,3-oxazol-2-yl)-2,4-dioxo-1H,2H,3H,4H-thieno[2,3-d]pyrimidin-3-yl]-2-methylpropanoic acid] gave an IC50 (ACC1) of under 100 nM, an IC50 (ACC2) of under 100 nM and an MIC (C. albicans ATCC 90028) of over 64 µg/mL. For the same molecule, the MIC (C. albicans ATCC 90028; [2]) was over 64 µg/mL, the MIC (C. krusei ATCC 6258) was over 64 µg/mL and the MIC (C. krusei ATCC 6258; [4]) was over 64 µg/mL. For the same molecule, the MIC [1] was over 64 µg/mL and the MIC [1, 3] was over 64 µg/mL.
`COc1ccccc1[C@H](Cn1c(=O)n(C(C)(C)C(=O)N2CCOCC2)c(=O)c2c(C)c(-c3ncco3)sc21)OC(C)C` [I-235, 1-[(2R)-2-(2-methoxyphenyl)-2-(propan-2-yloxy)ethyl]-5-methyl-3-[2-methyl-1-(morpholin-4-yl)-1-oxopropan-2-yl]-6-(1,3-oxazol-2-yl)-1H,2H,3H,4H-thieno[2,3-d]pyrimidine-2,4-dione] showed an IC50 (ACC1) of under 100 nM, an IC50 (ACC2) of under 100 nM and an MIC (C. albicans ATCC 90028) of 8 µg/mL (≈ 13.4 µM). It also gave an MIC (C. albicans ATCC 90028; [2]) of 8 µg/mL (≈ 13.4 µM), an MIC (C. krusei ATCC 6258) of 8 µg/mL (≈ 13.4 µM) and an MIC (C. krusei ATCC 6258; [4]) of 8 µg/mL (≈ 13.4 µM). The MIC [1] was 8 µg/mL (≈ 13.4 µM), the MIC [1, 3] was 8 µg/mL (≈ 13.4 µM) and the “anti-fungal activity MICs” value (Candida species) was “low ug/mL range”.
Molecule `CCNC(=O)C(C)(C)n1c(=O)c2c(C)c(-c3ncco3)sc2n(C[C@H](OC(C)C)c2ccccc2OC)c1=O` [I-236, N-ethyl-2-[1-[(2R)-2-(2-methoxyphenyl)-2-(propan-2-yloxy)ethyl]-5-methyl-6-(1,3-oxazol-2-yl)-2,4-dioxo-1H,2H,3H,4H-thieno[2,3-d]pyrimidin-3-yl]-2-methylpropanamide] has an IC50 (ACC1) of under 100 nM, an IC50 (ACC2) of under 100 nM and an MIC (C. albicans ATCC 90028) of 8 µg/mL (≈ 14.4 µM). The MIC (C. albicans ATCC 90028; [2]) was 8 µg/mL (≈ 14.4 µM), the MIC (C. krusei ATCC 6258) was 4 µg/mL (≈ 7.21 µM) and the MIC (C. krusei ATCC 6258; [4]) was 8 µg/mL (≈ 14.4 µM). The MIC [1] was 2 µg/mL (≈ 3.61 µM), the MIC [1, 3] was 2 µg/mL (≈ 3.61 µM) and the “anti-fungal activity MICs” value (Candida species) was “low ug/mL range”.
With `COc1ccccc1[C@H](Cn1c(=O)n(C(C)(C)C(N)=O)c(=O)c2c(C)c(-c3ncco3)sc21)OC1CCOCC1` [I-246, 2-[1-[(2R)-2-(2-methoxyphenyl)-2-(oxan-4-yloxy)ethyl]-5-methyl-6-(1,3-oxazol-2-yl)-2,4-dioxo-1H,2H,3H,4H-thieno[2,3-d]pyrimidin-3-yl]-2-methylpropanamide] the MIC (C. albicans ATCC 90028) was 4 µg/mL (≈ 7.03 µM), the MIC (C. albicans ATCC 90028; [2]) was 4 µg/mL (≈ 7.03 µM) and the MIC (C. krusei ATCC 6258) was 16 µg/mL (≈ 28.1 µM). The MIC (C. krusei ATCC 6258; [4]) was 16 µg/mL (≈ 28.1 µM), the MIC [1] was 4 µg/mL (≈ 7.03 µM) and the MIC [1, 3] was 4 µg/mL (≈ 7.03 µM). The “anti-fungal activity MICs” value (Candida species) was “low ug/mL range”.
Molecule `Cc1c(-c2ncco2)sc2c1c(=O)n(C(C)(C)C(=O)O)c(=O)n2C[C@H](O[C@H]1CC[C@H](O)CC1)c1ccccc1OC(C)C` [I-294, 2-(1-((R)-2-(((1r,4R)-4-hydroxycyclohexyl)oxy)-2-(2-isopropoxyphenyl)ethyl)-5-methyl-6-(oxazol-2-yl)-2,4-dioxo-1,2-dihydrothieno[2,3-d]pyrimidin-3(4H)-yl)-2-methylpropanoic acid] has an IC50 (ACC1) of under 100 nM and an IC50 (ACC2) of under 100 nM.
Work on `Cc1c(-c2ncco2)sc2c1c(=O)n(C(C)(C)C(=O)O)c(=O)n2C[C@H](O[C@H]1CC[C@@H](O)CC1)c1ccccc1OC(C)C` [I-295, 2-(1-((R)-2-(((1s,4S)-4-hydroxycyclohexyl)oxy)-2-(2-isopropoxyphenyl)ethyl)-5-methyl-6-(oxazol-2-yl)-2,4-dioxo-1,2-dihydrothieno[2,3-d]pyrimidin-3(4H)-yl)-2-methylpropanoic] yielded an IC50 (ACC1) of under 100 nM and an IC50 (ACC2) of under 100 nM.
In the case of `Cc1c(-c2ncco2)sc2c1c(=O)n(C(C)(C)C(=O)O)c(=O)n2C[C@H](OC1CCOCC1)c1ccccc1COC(C)C` [I-297, 2-methyl-2-[5-methyl-1-[(2R)-2-(oxan-4-yloxy)-2-[2-[(propan-2-yloxy)methyl]phenyl]ethyl]-6-(1,3-oxazol-2-yl)-2,4-dioxo-1H,2H,3H,4H-thieno[2,3-d]pyrimidin-3-yl]propanoic acid], the IC50 (ACC1) is reported as under 100 nM and the IC50 (ACC2) is reported as under 100 nM.
In the case of `Cc1c(-c2ncco2)sc2c1c(=O)n(C(C)(C)C(=O)O)c(=O)n2C[C@@H](OC1CCOCC1)c1ccccc1CC#N` [I-303, (S)-2-(1-(2-(2-(cyanomethyl)phenyl)-2-((tetrahydro-2H-pyran-4-yl)oxy)ethyl)-5-methyl-6-(oxazol-2-yl)-2,4-dioxo-1,2-dihydrothieno[2,3-d]pyrimidin-3(4H)-yl)-2-methylpropanoic acid], the IC50 (ACC1) is reported as under 100 nM and the IC50 (ACC2) is reported as under 100 nM.

Reference: patent publication US9453026B2, “ACC inhibitors and uses thereof” (Gilead Apollo, Inc., priority 2011, dated 2016)
